Patent US4357344A, “Polybutylbenzylphenols and benzyl-3,4-methylenedioxybenzenes in insect population control” (The United States of America as represented by the …, priority 1979, dated 1982)

Columns and labels:
Format in all cases: in vivo
[1] = system: flies (family Muscidae); assay: Oviposition inhibition tests (treated fly food; Examples 6-9)
Method: The compound to be tested was administered in a standard fly food containing 6 parts of sugar, 6 parts of powdered non-fat dry milk, and 1 part of powdered egg yolk. Treated food was prepared by mixing an appropriate amount of a solution or suspension of CBCP in acetone with a batch of the food. The acetone was evaporated (4-6 hours) and the dry material was repulverized. Oviposition inhibition tests: Samples of treated food with a container of water were placed in cages containing 100 newly-emerged adult flies (family Muscidae). After the flies had been exposed to the treated diet for 6-7 days, 1/2 inch of moist standard fly larva-rearing medium (CSMA) in souffle cups was placed in the cages for oviposition. After 4-6 hours, the cup was removed and examined for eggs. […] The procedure outlined in Example 6 was followed using a Group II compound. The procedure outlined in Example 6 was followed using Group III compounds. The results are summarized below: The procedure outlined in Example 6 was followed substituting a Group IV compound for those of Group I. The table below provides a summary of results.

[2] = system: early fourth-stage larvae of the common malaria mosquito (Anopheles quadrimaculatus); assay: Growth-inhibition tests on mosquito larvae; conditions: in water; corrected by Abbott's formula
Method: The compound to be tested was added to one liter of water until the final concentration thereof was a growth-inhibiting amount. Fifty early fourth-stage larvae of the common malaria mosquito (Anopheles quadrimaculatus) were placed on this water. Larval food was administered daily. Dead larvae and pupae were removed, counted, and discarded daily. Live pupae were removed, rinsed, and transferred to a cup of distilled water. The cup was placed in an emergence cage, and the emerging adults, if any, were maintained on a sugar-water diet.
The effectiveness of the compound in inhibiting growth was determined by adding the number of dead larvae and pupae and the number of adults that were dead, unable to complete eclosion, and malformed. This sum was corrected by Abbott's formula (to adjust for the number of larvae or pupae which would die naturally) and designated as the GI (growth inhibition). The results are expressed as GI-90, i.e., the concentration of growth inhibitor in ppm that would prevent and/or retard growth in 90% of the treated larvae.

[3] = system: flies (family Muscidae); assay: Chemosterilancy tests (egg hatch and pupal development; Examples 6-9)
Method: The compound to be tested was administered in a standard fly food containing 6 parts of sugar, 6 parts of powdered non-fat dry milk, and 1 part of powdered egg yolk. Treated food was prepared by mixing an appropriate amount of a solution or suspension of CBCP in acetone with a batch of the food. The acetone was evaporated (4-6 hours) and the dry material was repulverized.
Chemosterilancy tests: If eggs were laid in the above tests, the cups were filled with water and stirred to break up the egg masses. A random sample of 100 eggs from each cup was collected and placed on a small piece of black cloth which was then laid on top of moist larva-rearing medium in a rearing container. Observations were made to determine percentage of egg hatch and pupal development.
The procedure outlined in Example 6 was followed using a Group II compound.
The procedure outlined in Example 6 was followed using Group III compounds. The results are summarized below:
The procedure outlined in Example 6 was followed substituting a Group IV compound for those of Group I. The table below provides a summary of results.

Row | SMILES | Mortality, parent generation ([1]; 0.5% in food) [%] | GI-90 (concentration of growth inhibitor that would prevent and/or retard growth in 90% of the treated larvae) [2] [ppm] | Egg hatch ([3]; 0.5% in food) [%] | Pupal development ([3]; 0.5% in food) [%] | Mortality, parent generation ([1]; 0.25% in food) [%] | Egg hatch ([3]; 0.25% in food) [%] | Pupal development ([3]; 0.25% in food) [%] | Mortality, parent generation ([1]; 0.05% in food) [%] | Mortality, parent generation ([1]; 0.1% in food) [%] | Egg hatch ([3]; 0.05% in food) [%] | Pupal development ([3]; 0.05% in food) [%] | Egg hatch ([3]; 0.1% in food) [%] | Pupal development ([3]; 0.1% in food) [%] | Mortality, parent generation ([1]; 0.01% in food) [%] | Egg hatch ([3]; 0.01% in food) [%] | Pupal development ([3]; 0.01% in food) [%]
1 | CCCCOc1cc2c(cc1C(C)c1ccccc1)OCO2 (stereo not drawn) [V, (α-Methylbenzyl)-3,4-methylenedioxy-6-n-butoxybenzene] | 0 | 0.097 | 34 | 34 |  |  |  |  |  |  |  |  |  |  |  | 
2 | COc1cc2c(cc1C(C)c1ccccc1)OCO2 (stereo not drawn) [Compound T, (α-Methylbenzyl)-3,4-methylenedioxy-6-methoxybenzene] | 42 | 0.6 | 0 | 0 | 60 | 56 | 56 |  |  |  |  |  |  |  |  | 
3 | CCCCOc1cc2c(cc1Cc1ccc(OC)cc1)OCO2 [P, (4-Methoxybenzyl)-3,4-methylenedioxy-6-n-butoxybenzene] | 0 | 0.047 | 0 | 0 | 0 | 0 | 0 | 0 | 0 | 36 | 36 | 10 | 10 |  |  | 
4 | CCOc1ccc(Cc2ccc3c(c2)OCO3)cc1C [II, (3-Methyl-4-ethoxybenzyl)-3,4-methylenedioxybenzene] | 80 |  |  |  | 0 | 50 | 50 |  |  |  |  |  |  |  |  | 
5 | COc1c(C)cc(Cc2ccc3c(c2)OCO3)cc1C [JJ, (3,5-Dimethyl-4-methoxybenzyl)-3,4-methylenedioxybenzene] | 70 | 0.6 |  |  | 0 | 0 | 0 | 0 | 0 | 70 | 70 | 6 | 6 |  |  | 
6 | COc1ccc(Cc2cc3c(cc2OC)OCO3)cc1 [L, (4-Methoxybenzyl)-3,4-methylenedioxy-6-methoxybenzene] |  |  |  |  | 60 |  |  | 0 | 0 | 0 | 0 | 0 | 0 | 0 | 91 | 91
7 | CCOc1cc2c(cc1Cc1ccc3c(c1)OCO3)OCO2 [NN, (3,4-methylenedioxy-6-ethoxybenzyl)-3,4-methylenedioxybenzene] |  |  |  |  |  |  |  | 0 | 0 | 2 | 2 | 0 | 0 |  |  | 
8 | COc1ccc(Cc2ccc3c(c2)OCO3)cc1C [HH, (3-Methyl-4-methoxybenzyl)-3,4-methylenedioxybenzene] |  |  |  |  | 80 |  |  |  | 0 |  |  | 82 | 82 |  |  | 
9 | CCCCCOc1cc2c(cc1C(C)c1ccccc1)OCO2 (stereo not drawn) [W, (α-Methylbenzyl)-3,4-methylenedioxy-6-n-pentoxybenzene] |  | 0.2 |  |  |  |  |  |  |  |  |  |  |  |  |  | 
10 | CCCCCOc1cc2c(cc1Cc1ccc(OC)cc1)OCO2 [R] |  |  |  |  | 0 | 0 | 0 | 0 | 0 | 76 | 76 | 31 | 31 |  |  | 
